Data from patent US11964978B2, “Modulators of STING (stimulator of interferon genes)” (PFIZER INC., priority 2021, dated 2024).

Assays:
[1] = tested on: phosphorylation of IRF3 in THP-1 cells (STING activation); assay: Phosphorylation of IRF3: THP-1 cell ELISA; assay type: cell-based; conditions: Homo sapiens, 3 hours incubation, read-out: THP-1 CELL P-IRF3 EC50
Method: Phosphorylation of IRF3: THP-1 cell ELISA
STING activation results in recruitment of TBK1 and phosphorylation of IRF3 transcription factor before induction of type I interferons. THP-1 cells (InvivoGen) were grown in RPMI media plus 2 mM L-glutamine, 10% fetal bovine serum, and 0.5% Pen-Strep. 10^4 cells were seeded in 96-well plates and incubated overnight […]. Compounds serial diluted compounds in media (final 0.5% DMSO) were added to the cells and incubated for an additional 3 hours. After incubation, the plates were centrifuged at 2000 rpm for 5 min. The cells were then lysed in 100 μl RIPA buffer and vortexed for 30 minutes at room temperature. 25 μl of lysate was then transferred to clear polystyrene High Bind plates that had been previously coated with mouse anti-human IRF-3 capture antibody (BD Pharmigen), and allowed to incubate at 4° C. for 16 hours. The plates were then washed and incubated with rabbit anti-phospho-IRF3 detection antibody (Cell Signaling Technologies) for 1.5 hours at room temperature. Finally, an HRP-linked secondary antibody (Cell Signaling Technologies) was added for 30 min before the Glo Substrate Reagent (R&D Systems) was used generate the luminescent signal. The signal was measured using a Perkin-Elmer Envision microplate reader. Data were normalized to “% effect” with a positive control STING agonist that was known to maximize the phosphorylated IRF3 signal and the negative control was DMSO.

R232-STING = R232-STING (Homo sapiens (Human), UniProt Q86WV6, H232R); conditions: read-out: R232-STING SPA-IC50 Ki; STING residues 155-341, 100 nM 3H-cGAMP; KI from IC50 with Cheng-Prusoff equation
[2] = tested on: THP-1 Lucia ISG cells (IRF-inducible Lucia luciferase reporter); assay: Interferon-β induction: THP-1 ISG reporter cell line; assay type: cell-based; conditions: THP1-Lucia ISG, 24 hours incubation, read-out: THP-1 Lucia ISG Cells IFN-β EC50
Method: Interferon-β Induction: THP-1 ISG Reporter Cell Line
THP-1 Lucia™ ISG cells (InvivoGen) express the secreted luciferase “Lucia” reporter gene under the control of an IRF-inducible composite promotor comprised of five interferon response elements. THP-1 Lucia™ ISG cells were grown in RPMI media plus 2 mM L-glutamine, 10% fetal bovine serum, and 0.5% Pen-Strep. Hygromycin B and Zeocin were present to maintain stable transfection. 10^4 cells were seeded in 96-well plates and incubated overnight 37° C., 5% CO2. 50 μL of serial diluted compounds in media (final 0.5% DMSO) was and incubated for an additional 24 hours. After incubation, the plates were centrifuged at 2000 rpm for 10 min. 50 μl of cell culture supernatant of each well was transferred to a white, opaque 96-well plate. One pouch of QUANTI-Luc™ (InvivoGen) powder was prepared in 25 mL of endotoxin-free water and 100 μL of prepared warm QUANTI-Luc solution were added to each well containing the supernatant. The luminescence signal was measured using a Perkin-Elmer Envision microplate reader. Data were normalized to “% effect” with a positive control STING agonist that was known to maximize the luciferase signal and the negative control DMSO.

Chain of R232-STING (Q86WV6 155-341 H232R): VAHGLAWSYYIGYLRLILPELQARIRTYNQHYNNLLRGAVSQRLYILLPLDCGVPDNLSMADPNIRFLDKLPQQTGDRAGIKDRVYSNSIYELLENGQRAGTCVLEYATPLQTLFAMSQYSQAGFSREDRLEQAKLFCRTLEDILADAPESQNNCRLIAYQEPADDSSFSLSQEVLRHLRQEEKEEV

SMILES	EC50 [1] [nM]	Ki (R232-STING) [nM]	EC50 [2] [nM]
CCCn1nc(C)c(O)c1-c1cn(C)c(-c2nc(C(N)=O)cc3c2cnn3C)n1 [AIF11, 4-[4-(4-hydroxy-3-methyl-1-propyl-1H-pyrazol-5-yl)-1-methyl-1H-imidazol-2-yl]-1-methyl-1H-pyrazolo[4,3-c]pyridine-6-carboxamide]	10	0.3	< 10
CCn1nc(C)c(F)c1-c1cn(C)c(-c2nc(C(N)=O)cc3c2cnn3C)n1 [AIF12, 4-[4-(1-ethyl-4-fluoro-3-methyl-1H-pyrazol-5-yl)-1-methyl-1H-imidazol-2-yl]-1-methyl-1H-pyrazolo[4,3-c]pyridine-6-carboxamide]	310	2.4	370
CCn1cc(-c2c(O)c(C)nn2CC)nc1-c1nc(C(N)=O)cc2c1cnn2C [AIF13, 4-[1-ethyl-4-(1-ethyl-4-hydroxy-3-methyl-1H-pyrazol-5-yl)-1H-imidazol-2-yl]-1-methyl-1H-pyrazolo[4,3-c]pyridine-6-carboxamide]	250	2.9	160
Cc1cc(-c2cn(C)c(-c3nc(C(N)=O)cc4c3cnn4C)n2)n(CCCC(F)F)n1 [AIF14, 4-{4-[1-(4,4-difluorobutyl)-3-methyl-1H-pyrazol-5-yl]-1-methyl-1H-imidazol-2-yl}-1-methyl-1H-pyrazolo[4,3-c]pyridine-6-carboxamide]	1370	28.2	1320
Cc1cc(-c2cn(C)c(-c3nc(C(N)=O)cc4c3cnn4C)n2)n(CCCC#N)n1 [AIF15, 4-{4-[1-(3-cyanopropyl)-3-methyl-1H-pyrazol-5-yl]-1-methyl-1H-imidazol-2-yl}-1-methyl-1H-pyrazolo[4,3-c]pyridine-6-carboxamide]	1350	46.6	1830
Cc1cc(-c2cn(C)c(-c3nc(C(N)=O)cc4c3cnn4C)n2)n(C)n1 [AIH02, 4-[4-(1,3-dimethyl-1H-pyrazol-5-yl)-1-methyl-1H-imidazol-2-yl]-1-methyl-1H-pyrazolo[4,3-c]pyridine-6-carboxamide]	4300	22.7	2560
CCCn1nccc1-c1cn(C)c(-c2nc(C(N)=O)cc3c2cnn3C)n1 [AIH03, 1-methyl-4-[1-methyl-4-(1-propyl-1H-pyrazol-5-yl)-1H-imidazol-2-yl]-1H-pyrazolo[4,3-c]pyridine-6-carboxamide]	6580	148	6260
Cc1cc(-c2cn(C)c(-c3nc(C(N)=O)cc4c3cnn4C)n2)n(CCCO)n1 [Example AIE01, 4-{4-[1-(3-hydroxypropyl)-3-methyl-1H-pyrazol-5-yl]-1-methyl-1H-imidazol-2-yl}-1-methyl-1H-pyrazolo[4,3-c]pyridine-6-carboxamide]	200	3.6	220

More lines, now with the values ahead:

EC50 [1] [nM]	Ki (R232-STING) [nM]	EC50 [2] [nM]	SMILES
> 10000	151	> 10000	Cn1cc(-c2ccnn2C)nc1-c1nc(C(N)=O)cc2c1cnn2C [AIH04, 1-methyl-4-[1-methyl-4-(1-methyl-1H-pyrazol-5-yl)-1H-imidazol-2-yl]-1H-pyrazolo[4,3-c]pyridine-6-carboxamide]
> 10000	93.3	> 10000	CCn1nccc1-c1cn(C)c(-c2nc(C(N)=O)cc3c2cnn3C)n1 [AIH05, 4-[4-(1-ethyl-1H-pyrazol-5-yl)-1-methyl-1H-imidazol-2-yl]-1-methyl-1H-pyrazolo[4,3-c]pyridine-6-carboxamide]
990	20.9	1200	COCCCn1nc(C)cc1-c1cn(C)c(-c2nc(C(N)=O)cc3c2cnn3C(F)F)n1 [AIN02, 1-(difluoromethyl)-4-{4-[1-(3-methoxypropyl)-3-methyl-1H-pyrazol-5-yl]-1-methyl-1H-imidazol-2-yl}-1H-pyrazolo[4,3-c]pyridine-6-carboxamide]
680	12.8	850	COCCCn1nc(C)cc1-c1cn(C)c(-c2nc(C(N)=O)cc3c2cnn3CF)n1 [AIN03, 1-(fluoromethyl)-4-{4-[1-(3-methoxypropyl)-3-methyl-1H-pyrazol-5-yl]-1-methyl-1H-imidazol-2-yl}-1H-pyrazolo[4,3-c]pyridine-6-carboxamide]
370	2.9	310	CCn1nc(C)c(O)c1-c1cn(C)c(-c2nc(C(N)=O)cc3c2cnn3CC)n1 [AIN04, 1-ethyl-4-[4-(1-ethyl-4-hydroxy-3-methyl-1H-pyrazol-5-yl)-1-methyl-1H-imidazol-2-yl]-1H-pyrazolo[4,3-c]pyridine-6-carboxamide]
1140	35.2	1240	CCn1nc(C)cc1-c1cn(CCOC)c(-c2nc(C(N)=O)cc3c2cnn3C)n1 [AIP04, 4-[4-(1-ethyl-3-methyl-1H-pyrazol-5-yl)-1-(2-methoxyethyl)-1H-imidazol-2-yl]-1-methyl-1H-pyrazolo[4,3-c]pyridine-6-carboxamide]
670	10.7	820	CCn1nc(C)cc1-c1cn(C)c(-c2nc(C(N)=O)cc3c2cnn3C)n1 [Example AIA01, 4-[4-(1-ethyl-3-methyl-1H-pyrazol-5-yl)-1-methyl-1H-imidazol-2-yl]-1-methyl-1H-pyrazolo[4,3-c]pyridine-6-carboxamide]
1260	12.1	1170	CCn1nc(C)cc1-c1cn(C)c(-c2nc(C(N)=O)cc3c2cnn3CC)n1 [Example AIC01, 1-ethyl-4-[4-(1-ethyl-3-methyl-1H-pyrazol-5-yl)-1-methyl-1H-imidazol-2-yl]-1H-pyrazolo[4,3-c]pyridine-6-carboxamide]
6420	87.5	6310	CCc1nc(C)cn1-c1cn(C)c(-c2nc(C(N)=O)cc3c2cnn3C)n1 [Example AID01, 4-(2-ethyl-1′,4-dimethyl-1′H-[1,4′-biimidazol]-2′-yl)-1-methyl-1H-pyrazolo[4,3-c]pyridine-6-carboxamide]
500	9.8	540	CCCn1nc(C)cc1-c1cn(C)c(-c2nc(C(N)=O)cc3c2cnn3C)n1 [Example AIF01, 1-methyl-4-[1-methyl-4-(3-methyl-1-propyl-1H-pyrazol-5-yl)-1H-imidazol-2-yl]-1H-pyrazolo[4,3-c]pyridine-6-carboxamide]
> 10000	81.8	> 10000	CCn1nc(C)cc1-c1cn(C)c(-c2nc(C(N)=O)nc3c2cnn3C)n1 [Example AIG01, 4-[4-(1-ethyl-3-methyl-1H-pyrazol-5-yl)-1-methyl-1H-imidazol-2-yl]-1-methyl-1H-pyrazolo[3,4-d]pyrimidine-6-carboxamide]
400	10.2	450	CCn1ncc2c(-c3nc(-c4cc(C)nn4CCCO)cn3C)nc(C(N)=O)cc21 [Example AIJ01, 1-ethyl-4-{4-[1-(3-hydroxypropyl)-3-methyl-1H-pyrazol-5-yl]-1-methyl-1H-imidazol-2-yl}-1H-pyrazolo[4,3-c]pyridine-6-carboxamide]
330	15.2	430	CCn1cc(-c2cc(C)nn2CCCOC)nc1-c1nc(C(N)=O)cc2c1cnn2C [Example AIK01, 4-{1-ethyl-4-[1-(3-methoxypropyl)-3-methyl-1H-pyrazol-5-yl]-1H-imidazol-2-yl}-1-methyl-1H-pyrazolo[4,3-c]pyridine-6-carboxamide]
